Laboratory results: patent US9023354B2, “Combination therapy with MDM2 and EFGR inhibitors” (priority 2010, dated 2015)
Read-outs that look alike come from different tables or passages of the source.

Experiments:
A431 cells = assay: A431 cell proliferation assay (MTT), alone and in combination with Tarceva; format: cell-based; conditions: for IC50: further studies, Example 9, Table 7A, read-out: A431 Cell Proliferation (IC50 Value); for A431 Cell Proliferation CI Value: combination with Tarceva, CI <0.8 indicates synergy, Example 9, Table 7B
Method: This example describes an assay that measures the ability of compounds to inhibit the proliferation of cultured cells. This assay can also be used to assess whether combining two or more compounds produces additive, synergistic, or antagonistic effects on cell growth.
On day 1, the cells were seeded at 10^3 cells per well in 100 μl of complete media under standard conditions.
On day 2, the cells were washed and 100 μl serum free media was added. The cells were then incubated for at least 2 hours before the addition of compound(s). 20 μl of compound(s) was added to the respective wells and incubated at 37° C., 5% CO2 for 72 hrs.
On day 5, 50 μl of the MTT dye solution was added to each well. The plates were incubated at 37° C., 5% CO2 for 1 hr. The media was then aspirated and the cells were resuspended in […] of DMSO. The plates were allowed to incubate for 5 min at room temperature with gentle shaking.
The absorbance in each well was determined at 560 nm using a Polarstar plate reader.
The A431 cell line over-expresses the EGF receptor, and was utilized to assess the ability of AD4 compounds to inhibit EGF-mediated cell proliferation.

p53/MDM2 binding = p53/MDM2 binding (Homo sapiens (Human), UniProt Q00987); assay: AlphaScreen measurement of p53/MDM2 interaction (truncated GST-MDM2 aa 1-150)
Method: The following example describes an assay that measured the ability of compounds to inhibit the binding of p53 to MDM2 using the AlphaScreen assay technology (PerkinElmer). […] Recombinant, truncated, human, N-terminal GST-MDM2 (aa 1-150) was obtained from GeneScript. Wild-type, full length human N-terminal 6-his p53 was purchased from SignalChem.
Resulting in a final reaction volume of 24 μl PBS, 0.1% Tween-20, and 10% glycerol, 30 ng of MDM2 was added, followed by the addition of 10 of compound diluted in 100% DMSO that provided a final DMSO concentration of 4%. 30 ng of p53 was then added, mixed, and incubated at room temperature for 1 hour. Glutathione donor beads and Nickel acceptor beads (0.5 μg each; PerkinElmer) were added under subdued lighting conditions to a final reaction volume of 30 μl/well in a 96 well, ½ volume Proxima plate. The reaction was incubated at room temperature with shaking for 18 hrs in the dark. Analysis was then performed on a PerkinElmer EnSpire plate reader to determine the ability of compounds to inhibit the binding of p53 to MDM2.

[1] = system: apoptosis-related proteins in A549 cells; assay: Proteome profile of apoptosis-related proteins; format: cell-based, human; conditions: 5 μM
Excerpt: This example describes an assay that measured the relative expression levels of 35 apoptosis-related proteins in a single sample of whole cell extract. Methods are according to Examples 1-2 unless otherwise specified.
The protocol and reagents were purchased from R&D systems (Human apoptosis array kit; cat. #ARY009). The kit consisted of an antibody array spotted on nitrocellulose membranes with each specific antibody printed in duplicate. The detection antibodies were biotinylated so they could be used with a streptavidin-HRP conjugate designed for chemiluminescent imaging. The protocol was modified to utilize the LiCor infrared imaging technology by substituting an infrared 680 nm-tagged streptavidin.
The following day, two μl of compound dilutions in 100% DMSO were added to the appropriate wells resulting in a final concentration of 5 μM. The plates were then incubated for 6 hours at 37° C., 5% CO2, and 85% relative humidity. Following incubation, the cells were washed with 2 ml of PBS, then lysed with 500 μl/well of Lysis buffer, supplemented with a 1/200 dilution of mammalian protease inhibitor cocktail (Sigma Aldrich). The plates were shaken for 30 min at room temperature, spun @ 14,000×g for 5 minutes. 250 μl of the supernatant was removed and added to 1.25 ml of Assay buffer 1. The supernatant and Assay buffer 1 were incubated with membranes overnight at room temperature with shaking.
The following day, the membranes were washed 3 times for 10 min each, with 1× wash buffer in individual 50 ml Falcon tubes at room temperature with rotation. The membranes were incubated with a 1/100 dilution of biotinylated detection antibodies for 3 hours at room temperature with shaking.
The membranes were washed, then incubated with a 1/1000 dilution of IR 680 nm-labeled streptavidin (LiCor) for 60 minutes with shaking in the dark. The membranes were again washed. Excess buffer was blotted from membranes, placed between two pieces of transparent plastic and imaged on the LiCor infrared imager. The LiCor Odyssey software is used to quantitate the pixel intensity of each spot in the array.
First, several compounds were evaluated in a proteome profiling array system containing antibodies to 35 apoptosis-related proteins. In this assay (see Example 3), the relative expression levels of these proteins in cell extracts are measured from treated and non-treated A549 cells.

A549 cells = assay: DNA fragmentation (Cell Death Detection ELISA), measurement of apoptosis; conditions: for activation at 1 µM / activation at 10 µM: Homo sapiens
Method: The plates were allowed to incubate overnight @ 37° C., 5% CO2. On day 2, the media was removed from the plates and 160 μl media containing 5% FBS was added. 40 μl of media-containing test compound in 100% DMSO (prepared at 5× the dosing concentration) was added to the existing media resulting in a final DMSO concentration of 0.5%. Cells were incubated in the presence of a compound for 24 hrs @ 37° C., 5% CO2.
After 24 hrs, the abovementioned plates were centrifuged at 200×g for 10 min. The media was removed by gently inverting the plate and disposing of the media onto a paper towel. The plates were tapped gently to remove excess media. 200 μl lysis buffer was added to each well, and mixed by shaking at 300 rpm. The plates were incubated at room temperature for 30 min. The plates were centrifuged at 200×g for 10 min and 20 μl of lysis supernatant was removed for use in ELISA analysis to detect cell death.
20 μl of the cell lysis supernatant was placed into streptavidin-coated plates with 20 μl positive control and 20 μl incubation buffer negative control. Add 80 μl Immunoreagent (for DNA fragment detection) to each well. The wells were covered with foil adhesive and shaken at 300 rpm for 2 h at room temperature. The supernatant solution was removed and the wells were washed 3 times with 300 μl incubation buffer. 100 μl of ABTS detection substrate was added to each well. The wells were incubated on a plate shaker at 250 rpm for approximately 10-20 min. 100 μl ABTS of stop buffer was then added. […] The absorbance measures the colored product spectrophotometrically, correlating with apoptosis.
The percent increase in DNA fragmentation produced by compounds at a concentration of 1 and 10 μM were compared to background, and to the response produced by 500 nM staurosporin.

[2] = Stability toward liver microsome incubation; format: in vitro ADME
[3] = system: p53 and phospho-p53 (S15) in A549 NSCLC cells; assay: p53 In-Cell Western; format: cell-based, human; conditions: about 1-3 μM
[4] = system: p53-induced reporter gene activity; assay: p53 reporter gene assay in HEK293 cells; format: cell-based; conditions: 10 μM
Method: This example describes an assay that measures the ability of compounds to stimulate p53-induced reporter gene activity. In order for p53 activity to be observed, the interaction of p53 with MDM2 must be inhibited. Methods are according to Examples 1-5 unless otherwise specified.
HEK293 cells were transiently transfected with the inducible p53-responsive firefly luciferase reporter and constitutively-expressing Renilla construct. After 16 hrs of transfection at 37° C., 5% CO2, the transfection media was removed and 200 μl/well of assay media was added. The cells were then incubated for 8 hrs at 37° C., 5% CO2.
[…] of compound(s) was added to the cells and incubated for 16 hrs at 37° C. and 5% CO2. The cells were carefully washed with 200 μl of PBS. 20 μl_of lysis buffer was then added to each well and incubated at room temperature for 15 minutes with shaking.
The lysis buffer supernatant was transferred to a white/opaque CoStar 96-well plate and 100 μl of firefly luceriferase assay substrate was added. The luminescence in each well was determined using a Polarstar plate reader.
100 μl of Stop and Glow reagent was added to each well, mixed, and the luminescence generated by the Renilla luciferase was determined using a Polarstar plate reader. The Renilla signal was used to normalize the transfection efficiency and cell viability.

[5] = Homo sapiens, A-431, A431 cells
[6] = A549, read-out: % Inc. Relative to Staurosporin (500 nM), DNA fragmentation
[7] = A549, read-out: % Inc. over Background, DNA fragmentation

Sequence of p53/MDM2 binding (Q00987 1-150): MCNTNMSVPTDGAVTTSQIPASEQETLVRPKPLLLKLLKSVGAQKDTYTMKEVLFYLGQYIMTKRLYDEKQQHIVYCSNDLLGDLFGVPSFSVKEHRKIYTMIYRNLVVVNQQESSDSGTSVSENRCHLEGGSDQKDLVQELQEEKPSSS

Cc1ccnc(NC(c2ccccc2Cl)c2ccc3cccnc3c2O)c1 (stereo not drawn) [AD4-12907]
IC50 (A431 cells; [5]): 2600 nM | A431 Cell Proliferation CI Value (A431 cells): 0.71 | IC50 (p53/MDM2 binding; Table 7C, read-out: p53/MDM2 IC50 Value): 9200 nM | IC50 (p53/MDM2 binding; Table 9, read-out: Inhibition of p53/MDM2 Binding IC50 Value): 9200 nM

Cc1cc(Cl)cnc1NC(c1ccc(Cl)c(F)c1)c1ccc2cccnc2c1O (stereo not drawn) [AD4-13229]
phosphorylated forms of p53 [1]: increased all three phosphorylated forms of p53 | activation at 1 µM (A549 cells; [6]): 68% | activation at 10 µM (A549 cells; [6]): 84% | activation at 1 µM (A549 cells; [7]): 531% | activation at 10 µM (A549 cells; [7]): 667%

Cc1cc(Cl)cnc1NC(c1ccc(C(F)(F)F)cc1)c1ccc2cccnc2c1O (stereo not drawn) [AD4-13041]
IC50 (A431 cells; [5]): 2000 nM | A431 Cell Proliferation CI Value (A431 cells): 0.69 | stability (toward liver microsome incubation) [2]: increased stability over AD4-10628

Cc1cc(Cl)cnc1NC(c1ccc2cccnc2c1O)c1c(F)c(F)c(OCC(F)(F)F)c(F)c1F (stereo not drawn) [AD4-13243]
S15p-p53 (phosphorylated S15 p53) [3]: significantly increased | total p53 expression [3]: significantly increased | IC50 (A431 cells; A431 cells): 2200 nM | phosphorylated forms of p53 [1]: increased all three phosphorylated forms of p53 | DNA fragmentation / apoptosis (in words) (A549 cells; A549 cells): increased DNA fragmentation | % Inc. over Background, DNA fragmentation (A549 cells; A549 cells, 1 μM): 551% | % Inc. over Background, DNA fragmentation (A549 cells; A549 cells, 10 μM): 716%

Cc1cc(Cl)cnc1NC(c1ccc(Cl)cc1Cl)c1ccc2cccnc2c1O (stereo not drawn) [AD4-13130]
phosphorylated forms of p53 [1]: increased all three phosphorylated forms of p53 | activation at 1 µM (A549 cells; [6]): 58% | activation at 10 µM (A549 cells; [6]): 65% | activation at 1 µM (A549 cells; [7]): 565% | activation at 10 µM (A549 cells; [7]): 614%

Oc1c(C(Nc2cc(Cl)c(Cl)cn2)c2ccc(Cl)cc2Cl)ccc2cccnc12 (stereo not drawn) [AD4-13178]
phosphorylated forms of p53 [1]: increased all three phosphorylated forms of p53 | activation at 10 µM (A549 cells; [6]): 68% | activation at 1 µM (A549 cells; [7]): 395% | activation at 10 µM (A549 cells; [7]): 581%

CCOc1ccc(C(Nc2ccccn2)c2cc(Cl)c3cccnc3c2O)cc1 (stereo not drawn) [AD4-10953]
stimulation of p53 reporter gene activity [4]: 9.7 fold

CCc1cc(Cl)cnc1NC(c1ccc(Cl)cc1)c1ccc2cccnc2c1O (stereo not drawn) [AD4-13225]
phosphorylated forms of p53 [1]: increased all three phosphorylated forms of p53 | activation at 1 µM (A549 cells; [6]): 48% | activation at 10 µM (A549 cells; [6]): 42% | activation at 1 µM (A549 cells; [7]): 508% | activation at 10 µM (A549 cells; [7]): 458%

Oc1c(C(Nc2ccc(Cl)cn2)c2ccc(C(F)(F)F)cc2)ccc2cccnc12 (stereo not drawn) [AD4-13053]
A431 Cell Proliferation CI Value (A431 cells): 0.78 | stability (toward liver microsome incubation) [2]: increased stability over AD4-10628
